Assays:
Format in all cases: in vivo
[1] = system: Plutella xylostella; experiment: Example B8: Plutella xylostella (diamond back moth), artificial diet 24-well, eggs; conditions: 192 h, application rate of 200 ppm, 8 days after infestation, read-out: effect in at least one of the two categories (mortality or growth inhibition)
Outline: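 Artificial diet in 24-well plates treated with aqueous dilutions of DMSO stock (10,000 ppm stock) and dried, then infested with Plutella eggs. Mortality and growth inhibition scored versus untreated samples 8 days after infestation.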

[2] = system: Chilo suppressalis; experiment: Example B1: Chilo suppressalis (striped rice stemborer), artificial diet, L2 larvae; conditions: 144 h, application rate of 200 ppm, 6 days after infestation, read-out: control in at least one of the three categories (mortality, anti-feedant effect, or growth inhibition)
Outline: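 Artificial diet was treated with aqueous test solutions made from 10,000 ppm DMSO stocks, dried, then infested with L2 larvae (6-8 per well). Mortality, anti-feeding effect and growth inhibition were scored against untreated samples 6 days after infestation, and control was counted when any category exceeded untreated.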

[3] = system: Plutella xylostella; experiment: Example B12: Plutella xylostella (diamondback moth), artificial diet 96-well; conditions: 216 h, application rate of 500 ppm, 9 days after infestation
Experimental: Example B12: Plutella xylostella (Diamondback Moth)
96-well microtiter plates containing artificial diet were treated with aqueous test solutions, prepared from 10,000 ppm DMSO stock solutions, by a liquid handling robot. After drying, eggs (-30 per well) were infested onto a netted lid which was suspended above the diet. The eggs hatch and L1 larvae move down to the diet. The samples were assessed for mortality 9 days after infestation.
The following compounds gave an effect of at least 80% average mortality at an application rate of 500 ppm: […]

[4] = system: Diabrotica balteata; experiment: Example B2: Diabrotica balteata (corn root worm), maize sprouts, L2 larvae; conditions: 96 h, application rate of 200 ppm, 4 days after infestation, read-out: control in at least one of the two categories (mortality or growth inhibition)
Outline: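 Maize sprouts on agar sprayed with aqueous test solutions made from 10,000 ppm DMSO stocks, dried, then infested with 6 to 10 L2 larvae per well. Mortality and growth inhibition assessed versus untreated samples 4 days after infestation; application rate 200 ppm.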

[5] = system: Spodoptera littoralis; experiment: Example B9: Spodoptera littoralis (Egyptian cotton leaf worm), cotton leaf discs, L1 larvae; conditions: foliar, 72 h, application rate of 200 ppm, 3 days after infestation, read-out: control in at least one of the three categories (mortality, anti-feedant effect, or growth inhibition)
Outline: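 Cotton leaf discs on agar sprayed with aqueous test solutions from 10,000 ppm DMSO stocks, dried, then infested with five L1 larvae. Mortality, anti-feeding and growth inhibition scored against untreated samples 3 days after infestation.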

[6] = system: Myzus persicae; experiment: Example B11: Myzus persicae (green peach aphid), sucrose solution 96-well; conditions: 120 h, application rate of 50 ppm, 5 days after infestation
Description: Example B11: Myzus persicae (Green Peach Aphid)
Test compounds prepared from 10,000 ppm DMSO stock solutions were applied by a liquid handling robot into 96-well microtiter plates and mixed with a sucrose solution. Parafilm was stretched over the 96-well microtiter plate and a plastic stencil with 96 holes was placed onto the plate. Aphids were sieved into the wells directly onto the Parafilm. The infested plates were closed with a gel blotting card and a second plastic stencil and then turned upside down. The samples were assessed for mortality 5 days after infestation.

[7] = system: Myzus persicae; experiment: Example B7: Myzus persicae (green peach aphid), intrinsic activity, sucrose solution 24-well; conditions: 120 h, application rate of 12.5 ppm, 5 days after infestation, read-out: control (mortality)
Outline: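 Compounds from 10,000 ppm DMSO stocks were mixed into sucrose solution in wells at a rate of 12.5 ppm. Aphid-infested pea seedlings were placed on a Parafilm membrane over the solution, so aphids fed through it. Mortality was scored 5 days after infestation.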

[8] = system: Euschistus heros; experiment: Example B3: Euschistus heros (neotropical brown stink bug), soybean leaves, N2 nymphs; conditions: 120 h, application rate of 200 ppm, 5 days after infestation, read-out: control in at least one of the two categories (mortality or growth inhibition)
Experimental: Example B3: Euschistus heros (Neotropical Brown Stink Bug)
Soybean leaves on agar in 24-well microtiter plates were sprayed with aqueous test solutions prepared from 10,000 ppm DMSO stock solutions. After drying the leaves were infested with N2 nymphs. The samples were assessed for mortality and growth inhibition in comparison to untreated samples 5 days after infestation.
The following compounds gave an effect of at least 80% control in at least one of the two categories (mortality or growth inhibition) at an application rate of 200 ppm: […]

[9] = system: Myzus persicae; experiment: Example B5: Myzus persicae (green peach aphid), feeding/contact activity; conditions: 144 h, application rate of 200 ppm, 6 days after infestation
Experimental: Example B5: Myzus persicae (Green Peach Aphid):Feeding/Contact Activity
Sunflower leaf discs were placed onto agar in a 24-well microtiter plate and sprayed with aqueous test solutions prepared from 10,000 ppm DMSO stock solutions. After drying, the leaf discs were infested with an aphid population of mixed ages. The samples were assessed for mortality 6 days after infestation.

[10] = system: Myzus persicae; experiment: Example B6: Myzus persicae (green peach aphid), systemic activity, pea seedlings; conditions: 144 h, test rate of 24 ppm, 6 days after placing seedlings into test solutions
Experimental: Example B6: Myzus persicae (Green Peach Aphid). Systemic Activity
Roots of pea seedlings infested with an aphid population of mixed ages were placed directly into aqueous test solutions prepared from 10,000 DMSO stock solutions. The samples were assessed for mortality 6 days after placing seedlings into test solutions.

[11] = system: Frankliniella occidentalis; experiment: Example B4: Frankliniella occidentalis (western flower thrips), feeding/contact activity; conditions: 168 h, application rate of 200 ppm, 7 days after infestation
Experimental: Example B4: Frankliniella occidentalis (Western Flower Thrips):Feeding/Contact Activity
Sunflower leaf discs were placed on agar in 24-well microtiter plates and sprayed with aqueous test solutions prepared from 10,000 DMSO stock solutions. After drying the leaf discs were infested with a Frankliniella population of mixed ages. The samples were assessed for mortality 7 days after infestation.

CC(NC(=O)Nc1ccc(C(F)(F)F)cc1Cl)c1ncnn1-c1ccc(C#N)cn1 (centres unmarked) [Example P4, 1-[2-chloro-4-(trifluoromethyl)phenyl]-3-[1-[2-(5-cyano-2-pyridyl)-1,2,4-triazol-3-yl]ethyl]urea]
≥ 80%: percent effect (mortality or growth inhibition) at 200 ppm [1] | percent control (mortality, anti-feedant effect or growth inhibition) at 200 ppm [2] | mortality at 500 ppm [3] | percent control (mortality or growth inhibition) at 200 ppm [4] | percent control (mortality, anti-feedant effect or growth inhibition) at 200 ppm [5]

CC(NC(=O)Nc1ccc(Cl)cc1C(F)(F)F)c1ncnn1-c1ncccn1 (centres unmarked) [Example P6, 1-[4-chloro-2-(trifluoromethyl)phenyl]-3-[1-(2-pyrimidin-2-yl-1,2,4-triazol-3-yl)ethyl]urea]
≥ 80%: percent effect (mortality or growth inhibition) at 200 ppm [1] | mortality at 50 ppm [6] | percent control (mortality, anti-feedant effect or growth inhibition) at 200 ppm [2] | mortality at 500 ppm [3] | mortality at 12.5 ppm [7] | percent control (mortality or growth inhibition) at 200 ppm [4] | percent control (mortality, anti-feedant effect or growth inhibition) at 200 ppm [5]

C[C@H](NC(=O)Nc1cc(OC(F)(F)C(F)F)c(Cl)cc1Cl)c1ncnn1-c1ncccn1 [Example P46, 1-[2,4-dichloro-5-(1,1,2,2-tetrafluoroethoxy)phenyl]-3-[(1S)-1-(2-pyrimidin-2-yl-1,2,4-triazol-3-yl)ethyl]urea]
≥ 80%: percent effect (mortality or growth inhibition) at 200 ppm [1] | mortality at 50 ppm [6] | percent control (mortality, anti-feedant effect or growth inhibition) at 200 ppm [2] | percent control (mortality or growth inhibition) at 200 ppm [8] | mortality at 12.5 ppm [7] | percent control (mortality or growth inhibition) at 200 ppm [4] | percent control (mortality, anti-feedant effect or growth inhibition) at 200 ppm [5] | mortality at 200 ppm [9]

C[C@H](NC(=O)Nc1cnc(C(F)(F)F)cc1Cl)c1ncnn1-c1ncccn1 [Example P103, 1-[4-chloro-6-(trifluoromethyl)-3-pyridyl]-3-[(1S)-1-(2-pyrimidin-2-yl-1,2,4-triazol-3-yl)ethyl]urea]
≥ 80%: percent effect (mortality or growth inhibition) at 200 ppm [1] | mortality at 50 ppm [6] | percent control (mortality, anti-feedant effect or growth inhibition) at 200 ppm [2] | percent control (mortality or growth inhibition) at 200 ppm [8] | mortality at 24 ppm [10] | mortality at 12.5 ppm [7] | mortality at 200 ppm [11] | percent control (mortality or growth inhibition) at 200 ppm [4] | percent control (mortality, anti-feedant effect or growth inhibition) at 200 ppm [5] | mortality at 200 ppm [9]

C[C@H](NC(=O)N1CCc2cc(C(F)(F)F)ncc21)c1ncnn1-c1ncccn1 [Example P172, N-[(1S)-1-(2-pyrimidin-2-yl-1,2,4-triazol-3-yl)ethyl]-5-(trifluoromethyl)-2,3-dihydropyrrolo[2,3-c]pyridine-1-carboxamide]
≥ 80%: percent effect (mortality or growth inhibition) at 200 ppm [1] | percent control (mortality, anti-feedant effect or growth inhibition) at 200 ppm [2] | percent control (mortality or growth inhibition) at 200 ppm [8] | mortality at 24 ppm [10] | mortality at 12.5 ppm [7] | percent control (mortality or growth inhibition) at 200 ppm [4] | percent control (mortality, anti-feedant effect or growth inhibition) at 200 ppm [5] | mortality at 200 ppm [9]

C[C@H](NC(=O)N(C)c1cnc(C(F)(F)F)cc1Cl)c1ncnn1-c1ncccn1 [Example P235, 1-[4-chloro-6-(trifluoromethyl)-3-pyridyl]-1-methyl-3-[(1S)-1-(2-pyrimidin-2-yl-1,2,4-triazol-3-yl)ethyl]urea]
≥ 80%: percent effect (mortality or growth inhibition) at 200 ppm [1] | percent control (mortality, anti-feedant effect or growth inhibition) at 200 ppm [2] | percent control (mortality or growth inhibition) at 200 ppm [8] | mortality at 24 ppm [10] | mortality at 12.5 ppm [7] | mortality at 200 ppm [11] | mortality at 200 ppm [9]

CC(NC(=O)Nc1cnc(C(F)(F)F)cc1Cl)c1nccnc1-c1ncccn1 (centres unmarked) [Example P244, 1-[4-chloro-6-(trifluoromethyl)-3-pyridyl]-3-[1-(3-pyrimidin-2-ylpyrazin-2-yl)ethyl]urea]
≥ 80%: percent effect (mortality or growth inhibition) at 200 ppm [1] | percent control (mortality, anti-feedant effect or growth inhibition) at 200 ppm [2] | mortality at 24 ppm [10] | mortality at 12.5 ppm [7] | percent control (mortality, anti-feedant effect or growth inhibition) at 200 ppm [5] | mortality at 200 ppm [9]

C[C@H](NC(=O)N(C)c1cnc(C(F)(F)F)cc1Br)c1ncnn1-c1ncccn1 [Example P273, 1-[4-bromo-6-(trifluoromethyl)-3-pyridyl]-1-methyl-3-[(1S)-1-(2-pyrimidin-2-yl-1,2,4-triazol-3-yl)ethyl]urea]
≥ 80%: percent effect (mortality or growth inhibition) at 200 ppm [1] | percent control (mortality, anti-feedant effect or growth inhibition) at 200 ppm [2] | percent control (mortality or growth inhibition) at 200 ppm [8] | mortality at 24 ppm [10] | mortality at 12.5 ppm [7] | percent control (mortality, anti-feedant effect or growth inhibition) at 200 ppm [5]

COc1cc(C(F)(F)F)ncc1NC(=O)N[C@@H](C)c1ncnn1-c1ncccn1 [Example P348, 1-[4-methoxy-6-(trifluoromethyl)-3-pyridyl]-3-[(1S)-1-(2-pyrimidin-2-yl-1,2,4-triazol-3-yl)ethyl]urea]
≥ 80%: percent control (mortality, anti-feedant effect or growth inhibition) at 200 ppm [2] | percent control (mortality or growth inhibition) at 200 ppm [8] | mortality at 24 ppm [10] | mortality at 12.5 ppm [7] | percent control (mortality, anti-feedant effect or growth inhibition) at 200 ppm [5] | mortality at 200 ppm [9]

C[C@@H](c1ncnn1-c1ncccn1)N(C)C(=O)Nc1cnc(C(F)(F)F)cc1Cl [Example P397, 3-[4-chloro-6-(trifluoromethyl)-3-pyridyl]-1-methyl-1-[(1S)-1-(2-pyrimidin-2-yl-1,2,4-triazol-3-yl)ethyl]urea]
≥ 80%: percent effect (mortality or growth inhibition) at 200 ppm [1] | percent control (mortality, anti-feedant effect or growth inhibition) at 200 ppm [2] | percent control (mortality or growth inhibition) at 200 ppm [8] | mortality at 24 ppm [10] | mortality at 12.5 ppm [7]

Source: patent US20240108006A1, “PESTICIDALLY ACTIVE HETEROAROMATIC COMPOUNDS” (SYNGENTA CROP PROTECTION AG, priority 2021, published 2024)
